Laboratory results published in patent US20080138390A1, “Transdermal Delivery System For Use With Basic Permeation Enhancers” (priority 2004, published 2008).

Legend:
[1] = In vitro skin permeation of diclofenac sodium from transdermal systems, Franz diffusion cells; assay type: in vitro ADME, human; conditions: for cumulative amount of diclofenac that permeated through the skin: human cadaver skin, 32° C., 24-hour study
[2] = In vitro skin permeation of testosterone from transdermal systems, Franz diffusion cells; conditions: for cumulative amount of testosterone that permeated through the skin: human cadaver skin, receiver 30% NMP
Procedure: An in vitro skin permeation study was conducted using two testosterone transdermal delivery systems.
The backing/active agent-in-adhesive film was then pressed onto the skin with the adhesive side facing the stratum corneum. […] Three diffusion cells were used for each formulation. The receiver solution was 30% N-methyl pyrrolidone (NMP) in 70% DI H2O (v/v). The entire receiver solution was collected and replaced with fresh 30% NMP solution at each time point. The receiver solution collected was analyzed by HPLC to determine the concentration of testosterone. The cumulative amount of testosterone that permeated across the human cadaver skin was calculated using the measured testosterone concentrations in the receiver solutions, and the results were plotted versus time (FIG. 3).

Structure (SMILES) | cumulative amount of diclofenac that permeated through the skin ([1]; PVPP powder added (Formulation B by Table 1)) [mg/cm^2] | cumulative amount of diclofenac permeated relative to absence of the powder ([1]; PVPP powder added vs no PVPP powder) | cumulative amount of diclofenac that permeated through the skin ([1]; PVPP powder in combination with polyethylene oxide (Formulation C by Table 1)) [mg/cm^2] | cumulative amount of diclofenac that permeated through the skin ([1]; no PVPP powder added (Formulation D by Table 1)) [mg/cm^2] | cumulative amount of diclofenac that permeated through the skin ([1]; powdered starch, poly(acrylamide-acrylic acid) sodium salt instead of PVPP (Formulation A by Table 1)) [mg/cm^2] | cumulative amount of testosterone that permeated through the skin ([2]; 0.75 g PVPP powder added (Formulation J by Table 5)) [mg/cm^2] | cumulative amount of testosterone permeated relative to absence of the powder ([2]; 0.75 g PVPP powder vs no PVPP powder) | cumulative amount of testosterone that permeated through the skin ([2]; no PVPP powder added (Formulation I by Table 5)) [mg/cm^2]
O=C(O)Cc1ccccc1Nc1c(Cl)cccc1Cl [diclofenac, diclofenac sodium] | 2.41 | more than five times | 2.05 | 0.48 | 1.03 |  |  | 
C[C@]12CC[C@H]3[C@@H](CCC4=CC(=O)CC[C@@]43C)[C@@H]1CC[C@@H]2O [testosterone] |  |  |  |  |  | 0.70 | almost twice | 0.40
